Test system: JJ5 Breast Cancer cells
Test: Kinetics of binding, internalization and retention of radioactivity in JJ5 breast cancer cells
Format: cell-based, human
Conditions: 37° C.
Protocol: For the normal breast cell line HBL-100, 8000 EGFR/cell has been reported. The expression of EGFR in breast cancer cell lines has a reported range of 800 EGFR/cell for MCF-7 cells to […] for MDA-MB-468 cells. […] Utilizing the Auger electron emitter ^111In was used in the initial experiments to illustrate the utility of the invention using EGF-^111In-labeled transferrin conjugates. The EGF-^111In-labeled transferrin (0.25-80 ng) was incubated with 1.5×10^6 cells/dish JJ5 Breast Cancer (prepared from BCBM JJ5) cells in 1 mL of 0.1% human serum albumin in 35 mm multiwell culture dishes at 37° C. for 30 minutes. The cells were transferred to a centrifuge tube and centrifuged. The cell pellet was separated from the supernatant and counted in a g-scintillation counter to determine bound (B) and free (F) radioactivity. Non-specific binding was determined by conducting the assay in 100 nM hEGF. The kinetics of binding was determined by incubating 1 ng of EGF-^111In-labeled transferrin conjugate with 3×10^6 JJ5 Breast Cancer cells at 37° C. and determining the proportion of radioactivity bound to the cells at various times up to 24 hours. Internalized fraction was measured by determining the proportion of radioactivity which could not be displaced from the cell surface by 100 nM hEGF. […]

EGF-^111In-labeled transferrin conjugate: conjugate containing human epidermal growth factor (EGF) linked (biotin/streptavidin linker) to 111In-radiolabeled human transferrin
binding by the breast cancer cells (kinetics): rapidly bound

Reference: US20040219104A1, “Methods for treatment of tumors” (priority 2003, published 2004)
